Reference: patent publication US20200079793A1, “COMPOUNDS AND METHODS FOR MODULATING ADENOSINE A2B RECEPTOR AND ADENOSINE A2A RECEPTOR” (CORVUS PHARMACEUTICALS, INC., priority 2018, published 2020)

How the values were obtained:
A3R = target: T1, A3R (Homo sapiens, UniProt P0DMS8); experiment: Activity assay of adenosine receptor modulators, A3R cAMP (Table 1); assay type: cell-based
T1 sequence (P0DMS8 1-318): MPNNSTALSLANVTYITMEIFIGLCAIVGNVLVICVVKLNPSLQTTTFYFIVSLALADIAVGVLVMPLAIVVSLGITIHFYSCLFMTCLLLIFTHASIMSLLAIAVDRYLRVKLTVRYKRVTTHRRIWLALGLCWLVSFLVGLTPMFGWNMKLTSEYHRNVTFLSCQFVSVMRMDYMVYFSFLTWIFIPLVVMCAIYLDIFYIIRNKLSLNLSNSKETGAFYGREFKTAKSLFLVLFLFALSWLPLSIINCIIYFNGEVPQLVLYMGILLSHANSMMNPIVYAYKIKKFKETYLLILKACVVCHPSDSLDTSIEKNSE
Description: (§1) Compounds (e.g., adenosine receptor modulators) were tested for its biological activity. The assay results in Table 1 indicate (+ means >1 μM; ++ means 100 nM to 1 μM; +++ means <100 nM).

Adenosine A2B Receptor = target: T2, Adenosine A2B Receptor (Homo sapiens, UniProt P29275); experiment: Activity assay of adenosine receptor modulators, Adenosine A2B Receptor (Table 1); assay type: biochemical; settings: cAMP; read-out: A2BR cAMP IC50
T2 sequence (P29275 1-332): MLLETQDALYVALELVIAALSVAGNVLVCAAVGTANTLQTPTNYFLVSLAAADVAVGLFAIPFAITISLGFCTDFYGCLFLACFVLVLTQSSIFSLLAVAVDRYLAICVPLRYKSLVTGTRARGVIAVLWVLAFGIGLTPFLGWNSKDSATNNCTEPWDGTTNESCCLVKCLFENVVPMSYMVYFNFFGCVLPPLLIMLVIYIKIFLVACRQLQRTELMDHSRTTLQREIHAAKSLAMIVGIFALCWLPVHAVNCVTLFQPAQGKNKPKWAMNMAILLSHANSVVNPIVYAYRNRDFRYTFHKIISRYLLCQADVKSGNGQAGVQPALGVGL
Description: as §1

Adenosine A2A Receptor = Adenosine A2A Receptor (Homo sapiens, UniProt P29274); experiment: Activity assay of adenosine receptor modulators, Adenosine A2A Receptor (Table 1); assay type: biochemical; settings: cAMP; read-out: A2AR cAMP IC50
Sequence of Adenosine A2A Receptor (P29274 whole entry): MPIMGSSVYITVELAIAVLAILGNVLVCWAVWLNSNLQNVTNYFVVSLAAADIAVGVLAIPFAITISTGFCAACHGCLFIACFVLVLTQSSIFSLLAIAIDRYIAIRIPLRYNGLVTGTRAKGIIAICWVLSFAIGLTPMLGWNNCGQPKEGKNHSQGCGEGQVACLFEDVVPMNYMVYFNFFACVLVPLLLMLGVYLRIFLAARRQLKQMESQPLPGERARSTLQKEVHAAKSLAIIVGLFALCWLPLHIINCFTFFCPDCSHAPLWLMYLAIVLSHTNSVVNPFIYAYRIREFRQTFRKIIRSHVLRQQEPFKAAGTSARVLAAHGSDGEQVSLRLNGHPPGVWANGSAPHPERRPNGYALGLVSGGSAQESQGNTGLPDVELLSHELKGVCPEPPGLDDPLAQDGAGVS
Description: as §1

A1R = target: T3, A1R (Homo sapiens, UniProt P30542); experiment: Activity assay of adenosine receptor modulators, A1R cAMP (Table 1); assay type: cell-based
T3 sequence (P30542 1-326): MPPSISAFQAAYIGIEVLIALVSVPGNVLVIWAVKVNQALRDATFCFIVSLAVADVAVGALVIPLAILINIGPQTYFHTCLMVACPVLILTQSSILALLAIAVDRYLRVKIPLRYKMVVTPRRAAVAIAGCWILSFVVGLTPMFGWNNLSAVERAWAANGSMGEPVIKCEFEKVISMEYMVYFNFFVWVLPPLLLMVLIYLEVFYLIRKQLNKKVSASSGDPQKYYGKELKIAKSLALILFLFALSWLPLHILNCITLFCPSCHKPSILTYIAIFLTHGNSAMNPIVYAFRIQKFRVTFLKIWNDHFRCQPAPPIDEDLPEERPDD
Description: as §1

Cc1nc2nc(N[C@@H](C)c3ccccn3)nc(C(=O)N3CC(NC(=O)C(C)(C)C)C3)c2s1 [Example 62, 2,2-Dimethyl-N-[1-[2-methyl-5-[[(S)-1-(2-pyridyl)ethyl]amino]thiazolo[4,5-d]pyrimidine-7-carbonyl]azetidin-3-yl]propanamide]
IC50 (A3R): 100 to 1000 nM
IC50 (Adenosine A2B Receptor): < 100 nM
IC50 (Adenosine A2A Receptor): < 100 nM
IC50 (A1R): > 1000 nM

Cc1nc2nc(N[C@@H](C)c3cncc(F)c3)nc(C(=O)N3CC(NC(=O)C4CCCCC4)C3)c2s1 [Example 61, (S)—N-(1-(5-((1-(5-Fluoropyridin-3-yl)ethyl)amino)-2-methylthiazolo[4,5-d]pyrimidine-7-carbonyl)azetidin-3-yl)cyclohexanecarboxamide]
IC50 (A3R): < 100 nM
IC50 (Adenosine A2B Receptor): < 100 nM
IC50 (Adenosine A2A Receptor): < 100 nM
IC50 (A1R): > 1000 nM

Cc1nc2nc(N[C@@H](C)c3cncc(F)c3)nc(C(=O)N3CC(NC(=O)C4(C)CC4)C3)c2s1 [Example 54, (S)—N-(1-(5-((1-(5-Fluoropyridin-3-yl)ethyl)amino)-2-methylthiazolo[4,5-d]pyrimidine-7-carbonyl)azetidin-3-yl)-1-methylcyclopropane-1-carboxamide]
IC50 (A3R): < 100 nM
IC50 (Adenosine A2B Receptor): < 100 nM
IC50 (Adenosine A2A Receptor): < 100 nM
IC50 (A1R): > 1000 nM

Cc1nc2nc(N[C@@H](C)c3cncc(F)c3)nc(C(=O)N3CC(NC(=O)C4CC(F)(F)C4)C3)c2s1 [Example 69, (S)-3,3-Difluoro-N-(1-(5-((1-(5-fluoropyridin-3-yl)ethyl)amino)-2-methylthiazolo[4,5-d]pyrimidine-7-carbonyl)azetidin-3-yl)cyclobutane-1-carboxamide]
IC50 (A3R): 100 to 1000 nM
IC50 (Adenosine A2B Receptor): 100 to 1000 nM
IC50 (Adenosine A2A Receptor): < 100 nM
IC50 (A1R): > 1000 nM

Cc1nc2nc(N[C@@H](C)c3cncc(F)c3)nc(C(=O)NC[C@H]3CCOC3)c2s1 [Example 14, 5-(((S)-1-(5-Fluoropyridin-3-yl)ethyl)amino)-2-methyl-N—(((R)-tetrahydrofuran-3-yl)methyl)thiazolo[4,5-d]pyrimidine-7-carboxamide]
IC50 (A3R): > 1000 nM
IC50 (Adenosine A2B Receptor): < 100 nM
IC50 (Adenosine A2A Receptor): > 1000 nM
IC50 (A1R): 100 to 1000 nM

Cc1nc2nc(N[C@@H](C)c3cccnc3)nc(C(=O)N3CC[C@H](O)C3)c2s1 [Example 18, ((S)-3-Hydroxypyrrolidin-1-yl)(2-methyl-5-(((S)-1-(pyridin-3-yl)ethyl)amino)thiazolo[4,5-d]pyrimidin-7-yl)methanone]
IC50 (A3R): > 1000 nM
IC50 (Adenosine A2B Receptor): < 100 nM
IC50 (Adenosine A2A Receptor): > 1000 nM
IC50 (A1R): > 1000 nM

Cc1cc(C)cc(C(=O)NC2CN(C(=O)c3nc(N[C@@H](C)c4cccnc4)nc4nc(C)sc34)C2)c1 [Example 83, 3,5-Dimethyl-N-[1-[2-methyl-5-[[(S)-1-(3-pyridyl)ethyl]amino]thiazolo[4,5-d]pyrimidine-7-carbonyl]azetidin-3-yl]benzamide]
IC50 (A3R): > 1000 nM
IC50 (Adenosine A2B Receptor): < 100 nM
IC50 (Adenosine A2A Receptor): < 100 nM
IC50 (A1R): > 1000 nM

Cc1nc2nc(N[C@@H](C)c3cncc(F)c3)nc(C(=O)N3CCN(C(=O)CC(C)(C)C)C3)c2s1 [Example 34, (S)-1-(3-(5-((1-(5-Fluoropyridin-3-yl)ethyl)amino)-2-methylthiazolo[4,5-d]pyrimidine-7-carbonyl)imidazolidin-1-yl)-3,3-dimethylbutan-1-one]
IC50 (Adenosine A2B Receptor): 100 to 1000 nM
IC50 (Adenosine A2A Receptor): > 1000 nM

Cc1nc2nc(N[C@@H](C)c3cccnc3)nc(C(=O)N[C@@H](C)c3cccnc3)c2s1 [Example 27, 2-Methyl-N—((S)-1-(pyridin-3-yl)ethyl)-5-(((S)-1-(pyridin-3-yl)ethyl)amino)thiazolo[4,5-d]pyrimidine-7-carboxamide]
IC50 (Adenosine A2B Receptor): 100 to 1000 nM
IC50 (Adenosine A2A Receptor): 100 to 1000 nM

Cc1nc2nc(N[C@@H](C)c3cncc(F)c3)nc(C(=O)N3CCN(C(=O)NC(C)(C)C)C3)c2s1 [Example 35, (S)—N-(tert-Butyl)-3-(5-((1-(5-fluoropyridin-3-yl)ethyl)amino)-2-methylthiazolo[4,5-d]pyrimidine-7-carbonyl)imidazolidine-1-carboxamide]
IC50 (Adenosine A2B Receptor): 100 to 1000 nM
IC50 (Adenosine A2A Receptor): 100 to 1000 nM

CC(=O)N(C)C1CN(C(=O)c2nc(N[C@@H](C)c3cncc(F)c3)nc3nc(C)sc23)C1 [Example 44, (S)—N-(1-(5-((1-(5-Fluoropyridin-3-yl)ethyl)amino)-2-methylthiazolo[4,5-d]pyrimidine-7-carbonyl)azetidin-3-yl)-N-methylacetamide]
IC50 (Adenosine A2B Receptor): 100 to 1000 nM
IC50 (Adenosine A2A Receptor): > 1000 nM

Cc1nc2nc(N[C@@H](C)c3ccccn3)nc(C(=O)N3CC[C@@H](O)C3)c2s1 [Example 19, ((R)-3-Hydroxypyrrolidin-1-yl)(2-methyl-5-(((S)-1-(pyridin-2-yl)ethyl)amino)thiazolo[4,5-d]pyrimidin-7-yl)methanone]
IC50 (Adenosine A2B Receptor): < 100 nM
IC50 (Adenosine A2A Receptor): > 1000 nM

Cc1nc2nc(N[C@@H](C)c3cncc(F)c3)nc(C(=O)NCc3cccnc3)c2s1 [Example 23, (S)-5-((1-(5-Fluoropyridin-3-yl)ethyl)amino)-2-methyl-N-(pyridin-3-ylmethyl)thiazolo[4,5-d]pyrimidine-7-carboxamide]
IC50 (Adenosine A2B Receptor): < 100 nM
IC50 (Adenosine A2A Receptor): 100 to 1000 nM

Cc1nc2nc(N[C@@H](C)c3ccccn3)nc(C(=O)NC(C)C)c2s1 [Example 10, (S)—N-Isopropyl-2-methyl-5-((1-(pyridin-2-yl)ethyl)amino)thiazolo[4,5-d]pyrimidine-7-carboxamide]
IC50 (Adenosine A2B Receptor): < 100 nM
IC50 (Adenosine A2A Receptor): 100 to 1000 nM

Cc1nc2nc(N[C@@H](C)c3cncc(F)c3)nc(C(=O)NCCC3CCN(C(=O)OC(C)(C)C)CC3)c2s1 [Example 22, tert-Butyl (S)-4-(2-(5-((1-(5-fluoropyridin-3-yl)ethyl)amino)-2-methylthiazolo[4,5-d]pyrimidine-7-carboxamido)ethyl)piperidine-1-carboxylate]
IC50 (Adenosine A2B Receptor): 100 to 1000 nM
IC50 (Adenosine A2A Receptor): > 1000 nM

C[C@H](Nc1nc(C(=O)N2CCCC2)c2sc(N)nc2n1)c1cccnc1 [Example 20, (S)-(2-Amino-5-((1-(pyridin-3-yl)ethyl)amino)thiazolo[4,5-d]pyrimidin-7-yl)(pyrrolidin-1-yl)methanone]
IC50 (Adenosine A2B Receptor): 100 to 1000 nM
IC50 (Adenosine A2A Receptor): > 1000 nM

Cc1nc2nc(N[C@@H](C)c3cncc(F)c3)nc(C(=O)NCCNC(=O)NC(C)(C)C)c2s1 [Example 36, (S)—N-(2-(3-(tert-butyl)ureido)ethyl)-5-((1-(5-fluoropyridin-3-yl)ethyl)amino)-2-methylthiazolo[4,5-d]pyrimidine-7-carboxamide]
IC50 (Adenosine A2B Receptor): > 1000 nM
IC50 (Adenosine A2A Receptor): 100 to 1000 nM

Cc1nc2nc(N[C@@H](C)c3cncc(F)c3)nc(C(=O)NCCN3CCOCC3)c2s1 [Example 46, (S)-5-((1-(5-Fluoropyridin-3-yl)ethyl)amino)-2-methyl-N-(2-morpholinoethyl)thiazolo[4,5-d]pyrimidine-7-carboxamide]
IC50 (Adenosine A2B Receptor): 100 to 1000 nM
IC50 (Adenosine A2A Receptor): > 1000 nM

Cc1nc2nc(N[C@@H](C)c3cncc(F)c3)nc(C(=O)N3CC[C@H](N)C3)c2s1 [Example 43, ((S)-3-Aminopyrrolidin-1-yl)(5-(((S)-1-(5-fluoropyridin-3-yl)ethyl)amino)-2-methylthiazolo[4,5-d]pyrimidin-7-yl)methanone]
IC50 (Adenosine A2B Receptor): 100 to 1000 nM
IC50 (Adenosine A2A Receptor): > 1000 nM

Cc1nc2nc(N[C@@H](C)c3cncc(F)c3)nc(C(=O)N3CC(NC(=O)C4CCOC4)C3)c2s1 (stereo partly drawn) [Example 45, N-(1-(5-(((S)-1-(5-Fluoropyridin-3-yl)ethyl)amino)-2-methylthiazolo[4,5-d]pyrimidine-7-carbonyl)azetidin-3-yl)tetrahydrofuran-3-carboxamide]
IC50 (Adenosine A2B Receptor): 100 to 1000 nM
IC50 (Adenosine A2A Receptor): 100 to 1000 nM

Cc1nc2nc(N[C@@H](C)c3cncc(F)c3)nc(C(=O)N3CC(C(=O)N(C)C)C3)c2s1 [Example 26, (S)-1-(5-((1-(5-Fluoropyridin-3-yl)ethyl)amino)-2-methylthiazolo[4,5-d]pyrimidine-7-carbonyl)-N,N-dimethylazetidine-3-carboxamide]
IC50 (Adenosine A2B Receptor): < 100 nM
IC50 (Adenosine A2A Receptor): > 1000 nM

Cc1nc2nc(N[C@@H](C)c3cncc(F)c3)nc(C(=O)N3CC[C@@H](N)C3)c2s1 [Example 42, ((R)-3-Aminopyrrolidin-1-yl)(5-(((S)-1-(5-fluoropyridin-3-yl)ethyl)amino)-2-methylthiazolo[4,5-d]pyrimidin-7-yl)methanone]
IC50 (Adenosine A2B Receptor): 100 to 1000 nM
IC50 (Adenosine A2A Receptor): > 1000 nM
